US20160025753A1, “ASSAY FOR CANNABINOIDS AND METHODS OF USE THEREOF” (priority 2014, published 2016)
Values joined by “and” are separate entries in the source; they are usually repeats but may differ in a detail not shown here. Equal entries are not always repeated. Where two headings read alike, the source gives them in different places.

Tests used:
[1] = target: T1, human cannabinoid receptor 1 membrane preparation (Homo sapiens, UniProt P21554); assay type: binding
T1 construct: purchased EMD Millipore
T1 sequence (P21554 whole entry): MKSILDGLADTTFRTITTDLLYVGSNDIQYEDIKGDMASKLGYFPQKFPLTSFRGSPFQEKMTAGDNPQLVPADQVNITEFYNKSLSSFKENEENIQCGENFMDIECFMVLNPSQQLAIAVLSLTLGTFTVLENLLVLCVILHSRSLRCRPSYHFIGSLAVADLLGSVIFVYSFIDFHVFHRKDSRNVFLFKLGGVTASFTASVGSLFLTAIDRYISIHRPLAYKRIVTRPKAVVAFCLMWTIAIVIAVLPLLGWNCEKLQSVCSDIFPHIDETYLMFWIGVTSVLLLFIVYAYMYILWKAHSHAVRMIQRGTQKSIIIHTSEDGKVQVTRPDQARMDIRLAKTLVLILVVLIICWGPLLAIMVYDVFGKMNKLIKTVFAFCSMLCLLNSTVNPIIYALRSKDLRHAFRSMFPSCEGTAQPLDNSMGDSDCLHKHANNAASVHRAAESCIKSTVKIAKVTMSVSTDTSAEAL

[2] = target: T2, CB1 human recombinant protein (Homo sapiens, UniProt P21554); assay type: binding; design: purchased Abnova
T2 sequence (P21554 whole entry): as above

[3] = target: CB2 receptors (Homo sapiens, UniProt P34972); conditions: background statement; cited from earlier work
Sequence of CB2 receptors (P34972 whole entry): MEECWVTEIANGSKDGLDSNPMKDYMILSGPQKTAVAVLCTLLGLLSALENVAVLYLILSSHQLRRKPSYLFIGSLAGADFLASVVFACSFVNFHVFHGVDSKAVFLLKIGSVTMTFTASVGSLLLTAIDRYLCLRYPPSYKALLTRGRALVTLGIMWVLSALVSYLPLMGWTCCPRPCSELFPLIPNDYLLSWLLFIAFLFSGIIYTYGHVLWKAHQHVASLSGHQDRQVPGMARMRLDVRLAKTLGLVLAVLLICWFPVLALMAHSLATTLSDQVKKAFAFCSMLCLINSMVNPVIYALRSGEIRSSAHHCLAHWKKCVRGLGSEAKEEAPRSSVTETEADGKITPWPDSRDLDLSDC

[4] = target: T2, CB1 human recombinant protein; assay: Heterogeneous competitive plate assay, Δ9-THC conjugate coated 96-well plate, anti-CB1 antibody/HRP detection (Example 3)

CCCCCn1cc(C(=O)c2cccc3ccccc23)c2ccccc21 [JWH-018]
Detection by the assay (in words) [1]: comparable response | Relative Fluorescent Units (RFU) [1]: 22,299 RFU | Signal inhibition (relative absorbance at 450 nm) [2]: demonstrated signal inhibition

CCCCCn1cc(C(=O)c2cccc3ccccc23)c2cc(O)ccc21 [JWH-018 5-hydroxyindole metabolite]
Signal inhibition (relative absorbance at 450 nm) ([2]; 100 ng/mL test sample, FIG. 8): showed less signal inhibition

C=C(C)[C@@H]1CCC(C)=C[C@H]1c1c(O)cc(CCCCC)cc1O [cannabidiol, Cannabidiol]
Affinity for CB2 receptors [3]: low affinity

CCCCCCC(C)(C)c1cc(O)c2c(c1)OC(C)(C)[C@@H]1CC=C(CO)C[C@@H]21 [HU-210]
Detection by the assay (in words) [1]: comparable response | Relative Fluorescent Units (RFU) [1]: 21,014 RFU | Inhibition of absorbance at 450 nm (in words) ([4]; sample containing 100 ng/ml): significant inhibition of absorbance | Average Absorbance @ 450 nm ([4]; with 100 ng/mL HU-210, average of 6 replicates, no cannabinoid blank 2.279): 1.480 | Absorbance @ 450 nm ([4]; with 100 ng/mL HU-210, single replicates, no cannabinoid blank average 2.279): 1.435 and 1.480 and 1.416 and 1.602 and 1.379 and 1.569

CCCCCCCC(C)(C)c1ccc([C@H]2CCC[C@@H](O)C2)c(O)c1 [Cannabicyclohexanol]
Relative Fluorescent Units (RFU) ([1]; 1 μg/mL sample, excitation 535 nm, emission 610 nm, no cannabinoids 47,934): 20,667 RFU | Detection by the assay (in words) ([1]; 1 μg/mL solution of each): comparable response
